One may read the EC50 as the concentration giving half of the maximal effect.

The target of the first assay is T1, ERR1 (also known as ERR-α or ERR-1) (Homo sapiens, UniProt P11474).
T1 sequence (P11474 193-421 limits assumed): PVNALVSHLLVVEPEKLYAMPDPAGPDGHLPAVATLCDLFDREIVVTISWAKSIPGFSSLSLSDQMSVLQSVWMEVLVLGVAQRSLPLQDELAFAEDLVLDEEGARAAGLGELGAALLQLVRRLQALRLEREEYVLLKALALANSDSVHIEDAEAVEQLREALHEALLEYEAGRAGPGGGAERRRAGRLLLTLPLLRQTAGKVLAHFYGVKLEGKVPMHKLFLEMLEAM
In words: TR-FRET assay (disruption of co-activator peptide binding to ERR1 LBD). The format is biochemical.
Details: not given
As to the method: Time-Resolved Fluorescence Resonance Energy Transfer (TR-FRET) experiments were performed to examine the functional response of ERR1 (also known as ERR-α or ERR-1) ligands. The TR-FRET assay described herein relied on the conformation of ERR1 for binding to a co-activator peptide: when a test compound binds to ERR1 and alters its conformation, it can disrupt the binding of the co-activator peptide. The components of this homogeneous secondary assay included: the ^6His-tagged-ERR1LBD, a GST-labeled-hSRC2 co-activator polypeptide and a fluorescent donor/acceptor pair from CIS bio international htrf/bioassays (Bedford, Mass.) using both an α-GST Europium Cryptate (Eu) label and an α^6His-XL665 (allophycocyanin) fluorophore.
Reactions were allowed to reach equilibrium at 25° C. for 4-18 hours before collecting data on the Analyst from LJL Biosystems (Molecular Devices Sunnyvale, Calif.). […] Dose response curves were fitted using a hyperbolic equation and the data reported is the average of 3 independent experiments.
(In TR-FRET formats the signal depends on donor and acceptor labels being close together.)
The compound `COc1cc(/C=C2\SC(=O)NC2=O)ccc1Oc1ccc(C(F)(F)F)cc1C#N` [Compound 8, 2-[4-(2,4-Dioxo-thiazolidin-5-ylidenemethyl)-2-methoxy-phenoxy]-5-trifluoromethyl-benzonitrile] registered an EC50 of 0.55 µM.
For `COC(=O)c1ccc(Oc2ccc(/C=C3\SC(=O)NC3=O)cc2OC)c2ccccc12` [Compound 24], a half-maximal response (EC50) required 0.001 µM.
Same read-out and setting: to `COc1cc(/C=C2\SC(=O)NC2=O)ccc1Oc1ccc(C#N)cc1Cl` [Compound 21, 3-Chloro-4-[4-(2,4-dioxothiazolidin-5-ylidenemethyl)-2-methoxyphenoxy]benzonitrile] belongs 0.43 µM.
Turning to `COc1cc(/C=C2\SC(=O)NC2=O)ccc1Oc1ccc(C#N)cc1Br` [Compound 22, 3-Bromo-4-[4-(2,4-dioxothiazolidin-5-ylidenemethyl)-2-methoxyphenoxy]benzonitrile], a half-maximal effect (EC50) was put at 0.48 µM.
Regarding `COc1cc(/C=C2\SC(=O)NC2=O)ccc1Oc1ccc(C(F)(F)F)cc1Cl` [Compound 2, 5-[4-(2-Chloro-4-trifluoromethyl-phenoxy)-3-methoxy-benzylidene]-thiazolidine-2,4-dione], the concentration giving a half-maximal response (EC50) worked out at 0.13 µM.
Take `COC(=O)c1cc(C(F)(F)F)ccc1Oc1ccc(/C=C2\SC(=O)NC2=O)cc1OC` [Compound 9, 2-[4-(2,4-Dioxo-thiazolidin-5-ylidenemethyl)-2-methoxy-phenoxy]-5-trifluoromethyl-benzoic acid methyl ester]: a half-maximal effect (EC50) was put at 0.48 µM.
Still for that read-out and setting: to `COc1cc(/C=C2\SC(=O)NC2=O)ccc1Oc1ccc(C#N)c2ccccc12` [Compound 19, 4-[4-(2,4-Dioxothiazolidin-5-ylidenemethyl)-2-methoxyphenoxy]naphthalene-1-carbonitrile] belongs 0.12 µM; to `COC(=O)c1ccc(Oc2ccc(/C=C3\SC(=O)NC3=O)cc2OC)c(C(F)(F)F)c1` [Compound 10, 4-[4-(2,4-Dioxo-thiazolidin-5-ylidenemethyl)-2-methoxy-phenoxy]-3-trifluoromethyl-benzoic acid methyl ester], 0.012 µM.
The same measure, in the same setting: to `COc1cc(/C=C2\SC(=O)NC2=O)ccc1Oc1ccc(C(F)(F)F)cc1Br` [Compound 20, 5-[4-(2-Bromo-4-trifluoromethylphenoxy)-3-methoxybenzylidene]thiazolidine-2,4-dione] belongs 0.38 µM.

Still in this assay, the particulars now being: average of 3 independent experiments; read-out: TR-FRET EC50.
Turning to `N#Cc1ccc(Oc2ccc(/C=C3\SC(=O)NC3=O)cc2Br)c(C(F)(F)F)c1` [Compound 16, 4-[2-Bromo-4-(2,4-dioxo-thiazolidin-5-ylidenemethyl)-phenoxy]-3-trifluoromethyl-benzonitrile], the EC50 was determined as 0.6 µM.
Take `CCOc1cc(/C=C2\SC(=O)NC2=O)ccc1Oc1ccc(C#N)cc1C(F)(F)F` [Compound 13, 4-[4-(2,4-Dioxo-thiazolidin-5-ylidenemethyl)-2-ethoxy-phenoxy]-3-trifluoromethyl-benzonitrile]: the EC50 is 0.18 µM.
As to `CCOc1cc(/C=C2\SC(=O)NC2=O)ccc1Oc1ccc(C(N)=O)cc1C(F)(F)F` [Compound 27, 4-[4-(2,4-Dioxo-thiazolidin-5-ylidenemethyl)-2-ethoxy-phenoxy]-3-trifluoromethyl-benzamide], the concentration for a half-maximal effect (EC50) came out at 0.33 µM.
Regarding `CCOc1cc(/C=C2\SC(=O)NC2=O)ccc1Oc1ccc(C#N)c2ccccc12` [Compound 15, 4-[4-(2,4-Dioxo-thiazolidin-5-ylidenemethyl)-2-ethoxy-phenoxy]-naphthalene-1-carbonitrile], the EC50 worked out at 0.037 µM.
Same read-out and setting: next, `N#Cc1ccc(Oc2ccc(/C=C3\SC(=O)NC3=O)cc2F)c2ccccc12` [Compound 17, 4-[4-(2,4-Dioxo-thiazolidin-5-ylidenemethyl)-2-fluoro-phenoxy]-naphthalene-1-carbonitrile]: 0.1 µM; `N#Cc1ccc(Oc2ccc(/C=C3\SC(=O)NC3=O)cc2F)c(C(F)(F)F)c1` [Compound 12, 4-[4-(2,4-Dioxo-thiazolidin-5-ylidenemethyl)-2-fluoro-phenoxy]-3-trifluoromethyl-benzonitrile]: 0.15 µM; `N#Cc1ccc(Oc2ccc(/C=C3\SC(=O)NC3=O)cc2C(F)(F)F)c(C(F)(F)F)c1` [Compound 26, 4-[4-(2,4-Dioxo-thiazolidin-5-ylidenemethyl)-2-trifluoromethyl-phenoxy]-3-trifluoromethyl-benzonitrile]: 1 µM.
`COc1cc(/C=C2\SC(=O)NC2=O)ccc1Oc1ccc(Cl)cc1C(F)(F)F` [Compound 30, 5-[4-(4-Chloro-2-trifluoromethyl-phenoxy)-3-methoxy-benzylidene]-thiazolidine-2,4-dione]: the EC50 turned out to be 0.008 µM.
`N#Cc1ccc(Oc2ccc(/C=C3\SC(=O)NC3=O)cc2Cl)c(C(F)(F)F)c1` [Compound 18, 4-[2-Chloro-4-(2,4-dioxo-thiazolidin-5-ylidenemethyl)-phenoxy]-3-trifluoromethyl-benzonitrile]: the half-maximal effective concentration (EC50) was 0.52 µM.
Consider `COc1cc(/C=C2\SC(=O)NC2=O)ccc1Oc1ccc(Br)cc1C(F)(F)F` [Compound 5, 5-[4-(4-Bromo-2-trifluoromethyl-phenoxy)-3-methoxy-benzylidene]-thiazolidine-2,4-dione], for which the EC50 was found to be 0.57 µM.
In the case of `COc1cc(/C=C2\OC(=O)NC2=O)ccc1Oc1ccc(C#N)c2ccccc12` [Compound 23, 4-[4-(2,4-Dioxo-oxazolidin-5-ylidenemethyl)-2-methoxy-phenoxy]-naphthalene-1-carbonitrile], the EC50 amounted to 0.48 µM.
With `O=C1NC(=O)/C(=C/c2ccc(Oc3ccc(Cl)cc3C(F)(F)F)c(F)c2)S1` [Compound 31, 5-[4-(4-Chloro-2-trifluoromethyl-phenoxy)-3-fluoro-benzylidene]thiazolidine-2,4-dione], the EC50 was determined as 0.033 µM.
Regarding `COc1cc(/C=C2\SC(=O)NC2=O)ccc1Oc1ccc(C(N)=O)cc1C(F)(F)F` [Compound 6, 4-[4-(2,4-Dioxo-thiazolidin-5-ylidenemethyl)-2-methoxy-phenoxy]-3-trifluoromethyl-benzamide], the concentration for a half-maximal effect (EC50) was determined as 0.51 µM.
For the compound `Cc1cc(/C=C2\SC(=O)NC2=O)ccc1Oc1ccc(C#N)cc1C(F)(F)F` [Compound 14, 4-[4-(2,4-Dioxo-thiazolidin-5-ylidenemethyl)-2-methyl-phenoxy]-3-trifluoromethyl-benzonitrile], the EC50 is 0.2 µM.
Take `Cc1cc(/C=C2\SC(=O)NC2=O)ccc1Oc1ccc(C(N)=O)cc1C(F)(F)F` [Compound 28, 4-[4-(2,4-Dioxo-thiazolidin-5-ylidenemethyl)-2-methyl-phenoxy]-3-trifluoromethyl-benzamide]: the EC50 was found to be 0.44 µM.
The same measure, in the same setting: next, `COc1cc(/C=C2\SC(=O)NC2=O)ccc1Oc1ccc(S(C)(=O)=O)cc1Br` [Compound 3, 5-[4-(2-Bromo-4-methanesulfonyl-phenoxy)-3-methoxy-benzylidene]-thiazolidine-2,4-dione]: 1.03 µM; `Cc1cc(/C=C2\SC(=O)NC2=O)ccc1Oc1ccc(C#N)c2ccccc12` [Compound 11, 4-[4-(2,4-Dioxo-thiazolidin-5-ylidenemethyl)-2-methyl-phenoxy]-naphthalene-1-carbonitrile]: 0.48 µM.
For the compound `N#Cc1ccc(Oc2ccc(/C=C3\SC(=O)NC3=O)cc2OC(F)(F)F)c(C(F)(F)F)c1` [Compound 29, 4-[4-(2,4-Dioxo-thiazolidin-5-ylidenemethyl)-2-trifluoromethoxy-phenoxy]-3-trifluoromethyl-benzonitrile], the EC50 came out at 0.18 µM.
Take `COc1cc(/C=C2\SC(=O)NC2=O)ccc1Oc1ccc(S(C)(=O)=O)cc1Cl` [Compound 4, 5-[4-(2-Chloro-4-methanesulfonyl-phenoxy)-3-methoxy-benzylidene]-thiazolidine-2,4-dione]: the EC50 is 0.55 µM.

For the origin of these results see patent US8344009B2, “Substituted phenoxy thiazolidinediones as estrogen related receptor-á modulators” (priority 2007, dated 2013).
